Measured values reported in US20240408114A1, “METHODS FOR PREVENTING AND TREATING ACUTE KIDNEY INJURY” (The Johns Hopkins University, priority 2021, published 2024).

How the values were obtained:
splenic T cells = assay: Splenic T cell phenotypes in post-IRI mice; type: in vivo, mouse; conditions: vs vehicle
Description: T cell proliferation assessed with Ki67 expression was reduced in CD4^+ and CD8^+ T cells from JHU083 treated post-ischemic kidneys (Ki67^+, CD4^+ T cells 58.7±2.9 vs 50.6±2.1%, P=0.035; CD8^+ T cells, 61.2±4.2% vs 48.4±4.1%, P=0.043) (FIG. 15). […] We also studied immunophenotypes of splenic T cells from post-IRI mice.
KMNCs were isolated according to our previously described Percoll density gradient protocol. Ascon et al., 2006. Briefly, decapsulated kidneys were immersed and incubated in collagenase D (2 mg/mL; Sigma-Aldrich) solution for 30 min at 37° C. Samples were strained through 70 µm cell strainer (BD Bioscience, Franklin Lakes, NJ), washed, and resuspended in 40% Percoll (GE Healthcare, Chicago, IL) followed by gentle overlaying onto 80% Percoll. After centrifugation at 1,500 g for 30 min in brake off mode at room temperature, KMNCs were collected from interface between 40% and 80% Percoll. […] Cells were counted on hemocytometer using trypan blue exclusion under a microscope.
Cells were washed once with phosphate buffered saline (PBS) and stained with viability dye Zombie NIR Fixable Viability (BioLegend, San Diego, CA) for 15 min at room temperature. […] Samples were analyzed by 4-laser Aurora spectral flow cytometer (Cytek, Fremont, CA). […]

kidney T cells = assay: T cells from post-cisplatin AKI kidneys, spectral flow cytometry; type: in vivo, mouse
Description: Given the significant protective outcomes in ischemic AKI, we subsequently tested the effect of glutamine blockade on a nephrotoxic AKI model, which is another common etiology of clinical AKI. After pretreatment with JHU083 or vehicle, 25 mg/kg of cisplatin was injected intraperitoneally. T cells were isolated and studied after 72 h after cisplatin treatment (FIG. 16A).
KMNCs were isolated according to our previously described Percoll density gradient protocol. Ascon et al., 2006. Briefly, decapsulated kidneys were immersed and incubated in collagenase D (2 mg/mL; Sigma-Aldrich) solution for 30 min at 37° C. Samples were strained through 70 µm cell strainer (BD Bioscience, Franklin Lakes, NJ), washed, and resuspended in 40% Percoll (GE Healthcare, Chicago, IL) followed by gentle overlaying onto 80% Percoll. After centrifugation at 1,500 g for 30 min in brake off mode at room temperature, KMNCs were collected from interface between 40% and 80% Percoll. Spleens were strained through 40 µm cell strainer (BD Bioscience) and incubated with ammonium-chloride-potassium lysis buffer (Quality Biological, Gaithersburg, MD) for 3 min. Collected cells were washed and resuspended with Roswell Park Memorial Institute (RPMI) 1640 media (Thermo Fisher Scientific, Waltham, MA) containing 5% fetal bovine serum (FBS, Thermo Fisher Scientific). Cells were counted on hemocytometer using trypan blue exclusion under a microscope.
Cells were washed once with phosphate buffered saline (PBS) and stained with viability dye Zombie NIR Fixable Viability (BioLegend, San Diego, CA) for 15 min at room temperature. After washing with Cell Staining Buffer (BioLegend), cells were preincubated with anti-CD16/CD32 Fc receptor blocking antibody (S17011E, BioLegend) for 15 min to prevent nonspecific antibody binding. Subsequently, surface staining was performed in 50 μL of BD horizon™ Brilliant Stain buffer and surface staining antibody cocktail for 30 min at 4° C.: Pacific blue anti-CD44 (IM7, BioLegend), BV510 anti-CD8 (53-6.7, BioLegend), BV570 anti-CD45 (30-F11, BioLegend), BV605 anti-CD69 (H1.2F3, BioLegend), BV650 anti-NK1.1 (PK136, BioLegend), BV711 anti-PD1 (29F.1A12, BioLegend), BV785 anti-TCRβ (H57-597, BioLegend), PE-Cy5.5 anti-CD25 (PC61.5, Thermo Fisher Scientific), APC-R700 anti-CD62L (MEL-14, BD Bioscience), and APC-Fire810 anti-CD4 (GK1.5, BioLegend). Cells were fixed and permeabilized with Foxp3/Transcription Factor Staining kit (Thermo Fisher Scientific) for 30 min at room temperature and washed with permeabilization/wash buffer (Thermo Fisher Scientific). Intracellular staining was conducted in 50 μL of permeabilization/wash buffer with intracellular staining antibody cocktail for 45 min at room temperature: BV421 anti-Ki67 (16A8, BioLegend), Alexa Fluor 488 anti-CPT1a (8F6AE9, Abcam, Cambridge, UK), Alexa Fluor 532 anti-VDAC1 (20B12AF2, Abcam), PerCP-efluor 710 anti-FoxP3 (FJK-16S, Thermo Fisher Scientific), PE anti-GLUT1 (EPR3915, Abcam), Alexa Fluor 594 anti-pS6 (D68F8, Cell Signaling, Danvers, MA), PE-Cy5 anti-HKII (EPR20839, Abcam), PE-Cy7 anti-H3K27me3 (C36B11, Cell Signaling), and Alexa Fluor 647 anti-Tomm20 (EPR15581-54, Abcam). After staining, cells were washed with permeabilization/wash buffer then resuspended in Cell Staining Buffer. Samples were analyzed by 4-laser Aurora spectral flow cytometer (Cytek, Fremont, CA).
Glutamine antagonist, JHU083 was synthesized as previously described, Rais et al., 2016, and dissolved in 50 mM […] 4-(2-hydroxyethyl)-1-piperazineethanesulfonic acid (HEPES) buffered 0.9% saline. Aliquot stocks were stored at −80° C. and thawed right before injection. Before the IRI surgery or cisplatin injection, mice were administered 1.83 mg/kg JHU083 (equivalent to 1 mg/kg DON) or vehicle (50 mM HEPES buffered 0.9% saline) every other day via intraperitoneal injection. Following 4 consecutive dosages, mice underwent IRI surgery or cisplatin injection. […]

[1] = post-cisplatin AKI kidneys, vehicle 21.4±2.7, P=0.001

CCOC(=O)[C@H](CCC(=O)C=[N+]=[N-])NC(=O)[C@@H](N)CC(C)C [JHU083]
immunophenotypes of splenic CD4+ and CD8+ T cells (splenic T cells): increased naïve phenotypes with low CD44 and high CD62L expression | CD69 expression in CD4+, CD8+, and DN T cells (kidney T cells; cisplatin AKI, FIG. 17C): reduced | CD69+ among kidney CD8+ T cells (kidney T cells; [1]): 9.8±1.5% | Ki67+ among kidney CD8+ T cells (kidney T cells; [1]): 9.8±1.5% | Ki67+ among kidney CD4+ T cells (kidney T cells; post-cisplatin AKI kidneys, vehicle 37.0±2.9, P=0.003): 25.4±1.8 | CD69+ among kidney CD4+ T cells (kidney T cells; post-cisplatin AKI kidneys, vehicle 37.0±2.9, P=0.014): 25.4±1.8% | CD62L+ among kidney CD4+ T cells (kidney T cells; post-cisplatin AKI kidneys, vehicle 37.5±3.2): 52.5±3.0% | CD44+ among kidney CD8+ T cells (kidney T cells; post-cisplatin AKI kidneys, vehicle 43.3±3.3, P<0.001): 26.4±2.3% | CD62L+ among kidney CD8+ T cells (kidney T cells; post-cisplatin AKI kidneys, vehicle 48.9±4.2, P<0.001): 76.0±2.3% | CD44+ among kidney CD4+ T cells (kidney T cells; post-cisplatin AKI kidneys, vehicle 50.2±3.4, P=0.037): 40.9±2.4%
